Measured values from patent US8703964B2, “Bendamustine cyclopolysaccharide compositions” (Supratek Pharma Inc., priority 2009, dated 2014).
Read-outs that look alike come from different tables or passages of the source.

What was measured:
[1] = Pharmacokinetics of bendamustine dosed to rats, composition with SBECD and LMWP (Example 25); assay type: in vivo, Female Sprague-Dawley rats; settings: i.v. 10 mg/kg
Experimental: Control: 5 mg/mL bendamustine hydrochloride, 10.2 mg/mL of mannitol in 0.9% NaCl; dose of 10 mg/kg
5 mg/mL bendamustine hydrochloride, 20% w/w sodium sulfobutyl ether β-cyclodextrin, 10.2 mg/g mannitol in water; dose of 10 mg/kg.
5 mg/mL bendamustine hydrochloride, 20% w/w sodium sulfobutyl ether β-cyclodextrin, 1% LMWP, 10.2 mg/g mannitol in water; dose of 10 mg/kg.
Female Sprague-Dawley rats (250-350 g). The animals were kept three per cage with an air filter cover under light (12 h light/dark cycle, light on at 06 h00) and controlled temperature 22° C.+/−1° C. All manipulations with the animals were performed under a sterilized laminar hood. The animals had ad libitum access to Purina mouse chow and water. The animals were fasted overnight and anesthetized, before dosing. Dosing and Sampling: The bendamustine compositions and control were administered intravenously to rats via a tail vein. Blood samples were collected 5, 15, 30, 45 min, 1, 1.5, 2, 3 and 4 hrs post-injection. The rats were anesthetized by general inhalation of isoflurane. The blood samples were collected from the jugular vein with a heparinized tube and kept on ice. The sample was immediately centrifuged, and the plasma separated. The plasma samples were immediately extracted. Sample Extraction and Analysis: The plasma samples 0.100 mL were transferred to plastic tubes. The samples were extracted with 0.400 mL of 100 mM HCl in acetonitrile while being shaken vigorously for 30 seconds. The samples were centrifuged at 10000 RPM for 5 minutes. The supernatant was separated. The samples were frozen in dry ice and kept at −80° C. until HPLC analysis. The aliquots of 20 microliters were injected into HPLC for analysis. The HPLC Conditions: C18 reversed phase column 50×4.6 mm, Symmetry/Shield 3.5 micrometer Column temperature 30° C. Flow rate 1.5 mL/min Injection volume 20 microliters Fluorescence detection at wavelengths: excitation 327 nm, emission 420 nm Mobile phase: Buffer A: 5% acetonitrile 0.1% TFA Buffer B: 90% acetonitrile 0.1% TFA Run time: 10 min The pharmacokinetic profiles of Bendamustine for tested composition versus the control is shown in Table 9 below.

[2] = system: RPMI8226 cells; test: Cytotoxicity of bendamustine compositions pre-incubated with media, WST-1 (Example 23); assay type: cell-based; settings: for Cell growth: RPMI8226, 72 h; for IC50: Homo sapiens, RPMI-8226, read-out: IC50 of bendamustine, RPMI8226
Experimental: BM and SBECD/LMWP formulation (40 mg/ml BM in 20% SBECD, 1% LMWP) were incubated in DMEM medium containing 10% FBS for 0, 1, or 4 h and then were added in varying concentrations to RPMI8226 cells. During BM treatment, concentrations of SBECD and LMWP were kept constant in culture medium at […], respectively. Cells were then grown for 72 h. The drug cytotoxicity was evaluated using WST-1 procedure.

[3] = Bendamustine chemical stability in plasma, HPLC (Example 31); assay type: in vitro ADME; settings: heparinized human plasma, 37° C., initially 0.015 mg/mL bendamustine; read-out: T½ in plasma (decomposition half time)
Experimental: Heparinized human plasma was spiked, 20 μL into 780 μL of plasma, with the following bendamustine (BM) compositions:
The concentration of bendamustine in plasma after spiking was initially 0.015 mg/mL. The spiked plasma samples were incubated at 37° C. A sample of 50 μL was periodically withdrawn from spiked plasma, and transferred into 200 μL of 100 mM HCl solution in acetonitrile, mixed and centrifuged. 50 μL of the supernatant was diluted 20 times with 95% acetonitrile, then 20 μL of diluted samples were separated on Waters SymmetryShield RP18 3.5 μm column (4.6×50 mm) using gradient of acetonitrile (0.1% TFA) in water (0.1% TFA), flow 1.5 mL/min. Peak detection was performed by means of fluorescence detection with […] at 327 nm and emission at 420 nm. The area of the peak of Bendamustine was used to evaluate the rate of drug decomposition in the first order kinetics model.

In the case of Cn1c(CCCC(=O)O)nc2cc(N(CCCl)CCCl)ccc21 [BM, 4-[5-[bis(2-chloroethyl)amino]-1-methylbenzimidazol-2-yl]butanoic acid], the concentration at 1 h ([1]; female, Sprague-Dawley, rat, plasma, iv, 1 h post injection, read-out: Concentration of bendamustine in rat plasma, Mean (SEM)) is reported as 47 ng/mL, the concentration at 3 h ([1]; female, Sprague-Dawley, rat, plasma, iv, 3 h post injection, read-out: Concentration of bendamustine in rat plasma, Mean (SEM)) is reported as 0 ng/mL and the “Concentration of bendamustine in rat plasma, Mean (SEM)” value (“Concentration of bendamustine … (SEM)” below) ([1]; 0.08 h post injection) is reported as 6045 (388) ng/mL. The “Concentration of bendamustine … (SEM)” value ([1]; 0.25 h post injection) was 2428 (250) ng/mL, the “Concentration of bendamustine … (SEM)” value ([1]; 0.5 h post injection) was 520 (105) ng/mL and the “Concentration of bendamustine … (SEM)” value ([1]; 0.75 h post injection) was 145 (35) ng/mL. For the same molecule, the “Concentration of bendamustine … (SEM)” value ([1]; 1.5 h post injection) was 8 (1) ng/mL, the “Concentration of bendamustine … (SEM)” value ([1]; 2 h post injection) was 2 (1) ng/mL and the Cell growth ([2]; Bendamustine 1 uM, pre-incubated in medium 0 h) was 100%. It also gave a Cell growth ([2]; Bendamustine 1 uM, pre-incubated in medium 1 h) of 100%, a Cell growth ([2]; Bendamustine 1 uM, pre-incubated in medium 4 h) of 100% and a Cell growth ([2]; Bendamustine 15 uM, pre-incubated in medium 0 h) of 83%. The Cell growth ([2]; Bendamustine 15 uM, pre-incubated in medium 1 h) was 100%, the Cell growth ([2]; Bendamustine 15 uM, pre-incubated in medium 4 h) was 100% and the Cell growth ([2]; Bendamustine 31 uM, pre-incubated in medium 0 h) was 70%. For the same molecule, the Cell growth ([2]; Bendamustine 31 uM, pre-incubated in medium 1 h) was 100%, the Cell growth ([2]; Bendamustine 31 uM, pre-incubated in medium 4 h) was 100% and the Cell growth ([2]; Bendamustine 62 uM, pre-incubated in medium 0 h) was 46%. For the same molecule, the Cell growth ([2]; Bendamustine 62 uM, pre-incubated in medium 1 h) was 106%, the Cell growth ([2]; Bendamustine 62 uM, pre-incubated in medium 4 h) was 104% and the Cell growth ([2]; Bendamustine 125 uM, pre-incubated in medium 0 h) was 11%. For the same molecule, the Cell growth ([2]; Bendamustine 125 uM, pre-incubated in medium 1 h) was 20%, the Cell growth ([2]; Bendamustine 125 uM, pre-incubated in medium 4 h) was 105% and the Cell growth ([2]; Bendamustine 250 uM, pre-incubated in medium 0 h) was −23%. The Cell growth ([2]; Bendamustine 250 uM, pre-incubated in medium 1 h) was −45%, the Cell growth ([2]; Bendamustine 250 uM, pre-incubated in medium 4 h) was 75% and the Cell growth ([2]; Bendamustine 500 uM, pre-incubated in medium 0 h) was −87%. For the same molecule, the Cell growth ([2]; Bendamustine 500 uM, pre-incubated in medium 1 h) was −85%, the Cell growth ([2]; Bendamustine 500 uM, pre-incubated in medium 4 h) was 8% and the Cell growth ([2]; Bendamustine 1000 uM, pre-incubated in medium 0 h) was −98%. It also gave a Cell growth ([2]; Bendamustine 1000 uM, pre-incubated in medium 1 h) of −102%, a Cell growth ([2]; Bendamustine 1000 uM, pre-incubated in medium 4 h) of −99% and an IC50 ([2]; time of pre-incubation 0 h) of 62 µM. The IC50 ([2]; time of pre-incubation 1 h) was 106 µM, the IC50 ([2]; time of pre-incubation 4 h) was 390 µM and the “LC50” value ([2]; RPMI8226, change of LC50 (50% death of cells) per hour of pre-incubation in medium) was 107 ± 11 µM/h. For the same molecule, the “TGI” value ([2]; RPMI8226, change of TGI (total growth inhibition) per hour of pre-incubation in medium) was 98 ± 18 µM/h and the half-life at 0.015 mg/mL [3] was 123 min.
